Results taken from PMC11855478, “Bicyclic N,S-Acetals Containing Fused Cysteine-Amide System as New Heterocyclic Class Targeting Human Farnesyltransferase (FTase-h)” (International Journal of Molecular Sciences, 2025).

Columns and labels:
[1] = target: human farnesyltransferase (FTase) (Homo sapiens, UniProt P49354+P49356); test: FTase inhibitory assay (fluorescence, Dansyl-GCVLS); format: biochemical; settings: inhibition of human FTase at 100 μM of tested compound; mean of two experiments
In short: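 Partially purified recombinant FTase with Dansyl-GCVLS and farnesyl pyrophosphate in Tris/HCl pH 7.5 (DTT, MgCl2, ZnCl2, octyl-glucoside); fluorescence (ex 340/em 486 nm) read 15 min at 30 °C. IC50 by regression for compounds inhibiting >60% at 100 µM; kinetics varied FPP (Dns-GCVLS 2.5 μM) or peptide (FPP 10 μM).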

RPMI-8226 (Leukemia) = test: NCI one dose, RPMI-8226; format: cell-based, human; settings: RPMI-8226, 1.00E-5 Molar one dose
In short: (§1)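 Read-out: SRB staining. Exposure: 48 h. Cells: NCI panel of 60 human cancer lines.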

SR (Leukemia) = test: NCI one dose, SR; format: cell-based, human; settings: 1.00E-5 Molar one dose
Method: (§2) 3.4. Cell Proliferation Assay
(§3) Selected compounds were tested on a panel of 60 human cancer cell lines at the National Cancer Institute (NCI), Germantown, MD, USA. The cytotoxicity studies were conducted using a 48 h exposure protocol using the sulfo-rhodamine B assay.

[2] = tested on: EKVX (Non-Small Cell Lung Cancer); test: NCI one dose, EKVX; format: cell-based, human; settings: 1.00E-5 Molar one dose
In short: as §1

[3] = tested on: HOP-62 (Non-Small Cell Lung Cancer); test: NCI one dose, HOP-62; format: cell-based, human; settings: HOP-62, 1.00E-5 Molar one dose
In short: as §1

[4] = tested on: HOP-92 (Non-Small Cell Lung Cancer); test: NCI one dose, HOP-92; format: cell-based, human; settings: HOP-92, 1.00E-5 Molar one dose
In short: as §1

[5] = tested on: NCI-H522 non-small cell lung cancer cells; test: NCI cell proliferation, NCI-H522; format: cell-based, human; settings: for inhibition at 10 µM: Homo sapiens, NCI-H522, read-out: % Cancer cell growth Inhibition (NCI-H522); for Growth Percent: NCI-H522, 1.00E-5 Molar one dose
In short: (§4)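 48 h continuous compound exposure in the NCI 60 human cancer cell line screen, followed by sulforhodamine B measurement of cytotoxicity.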

COLO 205 (Colon Cancer) = test: NCI one dose, COLO 205; format: cell-based, human; settings: COLO 205, 1.00E-5 Molar one dose
Method: as §2, §3

KM12 (Colon Cancer) = test: NCI one dose, KM12; format: cell-based, human; settings: KM12, 1.00E-5 Molar one dose
In short: as §1

SNB-19 (CNS Cancer) = test: NCI one dose, SNB-19; format: cell-based, human; settings: SNB-19, 1.00E-5 Molar one dose
In short: as §1

LOX IMVI (Melanoma) = test: NCI one dose, LOX IMVI; format: cell-based, human; settings: 1.00E-5 Molar one dose
In short: as §1

MALME-3M (Melanoma) = test: NCI one dose, MALME-3M; format: cell-based, human; settings: 1.00E-5 Molar one dose
In short: as §4

M14 (Melanoma) = test: NCI one dose, M14; format: cell-based, human; settings: M14, 1.00E-5 Molar one dose
In short: as §1

MDA-MB-435 (Melanoma) = test: NCI one dose, MDA-MB-435; format: cell-based, human; settings: MDA-MB-435, 1.00E-5 Molar one dose
In short: as §4

UACC-257 melanoma cells = test: NCI one dose, UACC-257; format: cell-based, human; settings: UACC-257, 1.00E-5 Molar one dose
In short: as §1

UACC-62 (Melanoma) = test: NCI one dose, UACC-62; format: cell-based, human; settings: UACC-62, 1.00E-5 Molar one dose
In short: as §1

IGROV1 (Ovarian Cancer) = test: NCI one dose, IGROV1; format: cell-based, human; settings: IGROV1, 1.00E-5 Molar one dose
In short: as §1

OVCAR-8 (Ovarian Cancer) = test: NCI one dose, OVCAR-8; format: cell-based, human; settings: OVCAR-8, 1.00E-5 Molar one dose
In short: as §4

786-0 (Renal Cancer) = test: NCI one dose, 786-0; format: cell-based, human; settings: 786-0, 1.00E-5 Molar one dose
In short: as §1

ACHN (Renal Cancer) = test: NCI one dose, ACHN; format: cell-based, human; settings: 1.00E-5 Molar one dose
In short: as §4

SN12C (Renal Cancer) = test: NCI one dose, SN12C; format: cell-based, human; settings: 1.00E-5 Molar one dose
In short: as §1

UO-31 renal cancer cells = test: NCI one dose, UO-31; format: cell-based, human; settings: UO-31, 1.00E-5 Molar one dose
In short: as §1

PC-3 (Prostate Cancer) = test: NCI one dose, PC-3; format: cell-based, human; settings: PC-3, 1.00E-5 Molar one dose
In short: as §1

MCF7 (Breast Cancer) = test: NCI one dose, MCF7; format: cell-based, human; settings: MCF7, 1.00E-5 Molar one dose
In short: as §1

[6] = tested on: MDA-MB-231/ATCC (Breast Cancer); test: NCI one dose, MDA-MB-231/ATCC; format: cell-based, human; settings: 1.00E-5 Molar one dose
In short: as §1

HS 578T (Breast Cancer) = test: NCI one dose, HS 578T; format: cell-based, human; settings: 1.00E-5 Molar one dose
In short: as §1

T-47D (Breast Cancer) = test: NCI one dose, T-47D; format: cell-based, human; settings: 1.00E-5 Molar one dose
Method: as §2, §3

[7] = tested on: MDA-MB-468 breast cancer cells; test: NCI one dose, MDA-MB-468; format: cell-based, human; settings: MDA-MB-468, 1.00E-5 Molar one dose
In short: as §1

% FTI [1] [%]	Compound	Growth Percent (RPMI-8226 (Leukemia)) [%]	Growth Percent (SR (Leukemia)) [%]	Growth Percent [2] [%]	Growth Percent [3] [%]	Growth Percent [4] [%]	inhibition at 10 µM [5] [%]	Growth Percent [5] [%]	Growth Percent (COLO 205 (Colon Cancer)) [%]	Growth Percent (KM12 (Colon Cancer)) [%]	Growth Percent (SNB-19 (CNS Cancer)) [%]	Growth Percent (LOX IMVI (Melanoma)) [%]	Growth Percent (MALME-3M (Melanoma)) [%]	Growth Percent (M14 (Melanoma)) [%]	Growth Percent (MDA-MB-435 (Melanoma)) [%]	Growth Percent (UACC-257 melanoma cells) [%]	Growth Percent (UACC-62 (Melanoma)) [%]	Growth Percent (IGROV1 (Ovarian Cancer)) [%]	Growth Percent (OVCAR-8 (Ovarian Cancer)) [%]	Growth Percent (786-0 (Renal Cancer)) [%]	further results
30	COc1ccccc1CNC(=O)[C@@H]1CS[C@@]2(C)c3ccccc3C(=O)N12 [4bG]	96.98	82.72	102.57	98.30	98.11	30	70.03	105.75	103.74	102.87	98.70	100.10	100.11	103.94	74.15	95.39	107.94	95.21	104.93	Growth Percent (ACHN (Renal Cancer)): 109.61%; Growth Percent (SN12C (Renal Cancer)): 107.44%; Growth Percent (UO-31 renal cancer cells): 94.50%; Growth Percent (PC-3 (Prostate Cancer)): 98.65%; Growth Percent (MCF7 (Breast Cancer)): 92.90%; Growth Percent [6]: 98.66%; Growth Percent (HS 578T (Breast Cancer)): 95.65%; Growth Percent (T-47D (Breast Cancer)): 98.35%; Growth Percent [7]: 93.22%
56	COc1cccc(CNC(=O)[C@@H]2CS[C@@]3(C)c4ccccc4C(=O)N23)c1 [4bE]	95.74	81.22	112.43	98.17	101.27	33	67.45	115.50	107.56	102.99	101.37	110.68	104.58	98.34	81.73	91.91	107.98	90.08	105.14	Growth Percent (ACHN (Renal Cancer)): 106.16%; Growth Percent (SN12C (Renal Cancer)): 101.62%; Growth Percent (UO-31 renal cancer cells): 91.68%; Growth Percent (PC-3 (Prostate Cancer)): 96.89%; Growth Percent (MCF7 (Breast Cancer)): 89.13%; Growth Percent [6]: 105.57%; Growth Percent (HS 578T (Breast Cancer)): 95.18%; Growth Percent (T-47D (Breast Cancer)): 96.67%; Growth Percent [7]: 93.38%
